Columns and labels:
Assay in all cases: relative viability (nuclei count vs DMSO), 5 days (fraction); higher = more cells survive
JZL-184 = compound: C1CN(CCC1C(C2=CC3=C(C=C2)OCO3)(C4=CC5=C(C=C4)OCO5)O)C(=O)OC6=CC=C(C=C6)[N+](=O)[O-] [JZL-184]
Outline: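 Lung cancer cell lines in 1536-well plates were exposed by pinning to five library-drug doses (not always all listed) √10 apart, following an overnight hold at 37 °C. MetaXpress counted Hoechst-stained nuclei from 4× images taken after 5 days without medium change. Viability is the median ratio of treated-well to vehicle-well nuclei across plates. Plates required control CV below 25% and at least one doubling.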

JZL-184 + Vorinostat = compound: C1CN(CCC1C(C2=CC3=C(C=C2)OCO3)(C4=CC5=C(C=C4)OCO5)O)C(=O)OC6=CC=C(C=C6)[N+](=O)[O-] [JZL-184] + O=C(CCCCCCC(=O)Nc1ccccc1)NO [Vorinostat] (partner 1 µM)
Outline: (§1)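 Nuclei were stained with Hoechst during a one-step fixation (final 0.05% Triton X-100, 1% formaldehyde, 1 ug/ml Hoechst) carried out 5 days after dosing, then counted on 4× images. The cells, lung cancer lines in 1536-well plates, had been dosed by pin tool the day after seeding with one drug alone or a fixed anchor-drug dose plus five library-drug doses (not always all listed) in √10 steps. Relative viability is the nuclei count in treated wells divided by that in vehicle wells, and each value is the median of duplicate plates.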

JZL-184 + Luminespib = compound: C1CN(CCC1C(C2=CC3=C(C=C2)OCO3)(C4=CC5=C(C=C4)OCO5)O)C(=O)OC6=CC=C(C=C6)[N+](=O)[O-] [JZL-184] + CCNC(=O)c1noc(-c2cc(C(C)C)c(O)cc2O)c1-c1ccc(CN2CCOCC2)cc1 [Luminespib] (partner 0.01 µM)
Outline: as §1

JZL-184 + Linsitinib = compound: C1CN(CCC1C(C2=CC3=C(C=C2)OCO3)(C4=CC5=C(C=C4)OCO5)O)C(=O)OC6=CC=C(C=C6)[N+](=O)[O-] [JZL-184] + C[C@]1(O)C[C@@H](c2nc(-c3ccc4ccc(-c5ccccc5)nc4c3)c3c(N)nccn32)C1 [Linsitinib] (partner 1 µM)
Outline: as §1

JZL-184 + Crizotinib = compound: C1CN(CCC1C(C2=CC3=C(C=C2)OCO3)(C4=CC5=C(C=C4)OCO5)O)C(=O)OC6=CC=C(C=C6)[N+](=O)[O-] [JZL-184] + C[C@@H](Oc1cc(-c2cnn(C3CCNCC3)c2)cnc1N)c1c(Cl)ccc(F)c1Cl [Crizotinib] (partner 1 µM)
Outline: as §1

Cell Line | relative viability (JZL-184; 0.04 µM) | relative viability (JZL-184; 0.4 µM) | relative viability (JZL-184; 1.265 µM) | relative viability (JZL-184; 4 µM) | relative viability (JZL-184 + Vorinostat; first compound 0.04 µM) | relative viability (JZL-184 + Vorinostat; first compound 0.4 µM) | relative viability (JZL-184 + Vorinostat; first compound 1.265 µM) | relative viability (JZL-184 + Vorinostat; first compound 4 µM) | relative viability (JZL-184 + Luminespib; first compound 0.04 µM) | relative viability (JZL-184 + Luminespib; first compound 0.4 µM) | relative viability (JZL-184 + Luminespib; first compound 1.265 µM) | relative viability (JZL-184 + Luminespib; first compound 4 µM) | relative viability (JZL-184 + Linsitinib; first compound 0.04 µM) | relative viability (JZL-184 + Linsitinib; first compound 0.4 µM) | relative viability (JZL-184 + Linsitinib; first compound 1.265 µM) | relative viability (JZL-184 + Linsitinib; first compound 4 µM) | relative viability (JZL-184 + Crizotinib; first compound 0.04 µM) | relative viability (JZL-184 + Crizotinib; first compound 0.4 µM) | relative viability (JZL-184 + Crizotinib; first compound 1.265 µM) | relative viability (JZL-184 + Crizotinib; first compound 4 µM)
LK-2 | 1.13 | 0.928 | 1.21 | 0.944 | 0.275 | 0.309 | 0.251 | 0.295 | 0.217 | 0.194 | 0.203 | 0.17 | 0.733 | 0.559 | 0.662 | 0.583 | 0.223 | 0.232 | 0.211 | 0.22
LOU-NH91 | 1.02 | 0.879 | 0.984 | 0.945 | 1.02 | 0.893 | 1.03 | 0.893 | 0.26 | 0.322 | 0.32 | 0.387 | 1 | 0.924 | 1.02 | 0.968 | 0.757 | 0.738 | 0.771 | 0.769
LU99A | 1.01 | 0.774 | 1.18 | 0.968 | 0.567 | 0.377 | 0.66 | 0.548 | 0.279 | 0.224 | 0.283 | 0.321 | 0.582 | 0.511 | 0.529 | 0.442 | 0.657 | 0.529 | 0.622 | 0.63
LXF-289 | 1.08 | 0.926 | 1.02 | 0.959 | 0.771 | 0.734 | 0.755 | 0.669 | 0.917 | 0.57 | 0.693 | 0.618 | 1.05 | 0.94 | 0.971 | 0.924 | 0.813 | 0.819 | 0.765 | 0.75
NCI-H23 | 1.14 | 0.767 | 1.18 | 0.998 | 0.62 |  | 0.673 | 0.502 | 0.21 |  | 0.194 | 0.21 | 0.552 | 0.56 | 0.651 | 0.728 | 0.611 | 0.444 | 0.521 | 0.43
NCI-H322M | 0.951 | 0.926 | 0.982 | 0.774 | 0.882 | 0.784 | 0.867 | 0.684 | 0.91 | 0.797 | 0.889 | 0.705 | 0.823 | 0.938 | 0.984 | 0.907 | 0.965 | 0.971 | 0.886 | 0.825
NCI-H358 | 1 | 0.824 | 0.994 | 0.916 | 0.776 | 0.768 | 0.677 | 0.69 | 0.387 | 0.279 | 0.308 | 0.304 | 0.889 | 0.738 | 0.848 | 0.708 | 0.748 | 0.438 | 0.595 | 0.49
NCI-H441 | 1.14 | 0.814 | 1.02 | 0.998 | 0.793 | 1.02 | 0.784 | 0.697 | 0.442 | 0.325 | 0.365 | 0.347 | 0.534 | 0.401 | 0.672 | 0.606 | 0.767 | 0.54 | 0.793 | 0.58
NCI-H460 | 1.06 | 0.884 | 0.974 | 0.975 | 0.675 | 0.597 | 0.779 | 0.624 | 0.0429 | 0.0344 | 0.0404 | 0.0362 | 1.03 | 0.623 | 0.87 | 0.72 | 0.993 | 0.81 | 0.839 | 0.912
NCI-H520 | 0.793 | 0.924 | 1.07 | 0.93 | 0.884 | 0.683 | 0.798 | 0.678 | 0.222 | 0.226 | 0.239 | 0.209 | 1.15 | 0.929 | 0.926 | 0.897 | 0.813 | 0.707 | 0.907 | 0.665
NCI-H596 | 1.21 | 0.875 | 1.01 | 0.932 | 0.701 | 0.63 | 0.501 | 0.556 | 1.23 | 1.13 | 0.996 | 1.09 | 1.21 | 0.978 | 1.05 | 1.05 | 1.19 | 0.955 | 1.03 | 1.06
NCI-H647 | 1.04 | 0.945 | 1.06 | 0.887 | 0.898 | 0.635 | 0.892 | 0.4 | 0.286 | 0.128 | 0.0998 | 0.216 | 1.18 | 1.06 | 1.19 | 1.26 | 1.36 | 0.956 | 1 | 1.02
NCI-H650 | 1.03 | 0.762 | 1.1 | 0.979 | 0.518 | 0.369 | 0.422 | 0.414 | 0.854 | 0.647 | 0.802 | 0.806 | 0.966 | 0.62 | 0.933 | 0.747 | 0.872 | 0.73 | 0.814 | 0.685
NCI-H661 | 1.02 | 0.919 | 0.943 | 0.999 | 0.865 | 0.714 | 0.975 | 0.772 | 0.969 | 0.898 | 0.938 | 0.975 | 0.542 | 0.477 | 0.712 | 0.521 | 0.933 |  | 0.935 | 0.928
NCI-H727 | 0.949 | 0.793 | 1.09 | 0.781 | 1.26 | 1.14 | 1.08 | 1.05 | 0.343 | 0.286 | 0.375 | 0.355 | 0.203 | 0.314 | 0.233 | 0.373 | 0.876 | 0.728 | 0.903 | 0.864

Reference: the supplement of paper PMC10307832
